# Measured values taken from patent US20260109712A1, “RIFAMYCINS FOR NONTUBERCULOUS MYCOBACTERIA” (priority 2022, published 2026).
# Like-named read-outs stand apart in the source and are kept apart here.
# Experiments:
# M. abscessus ATCC 19977 = assay: MIC assay in 96-well plate format, wild-type strain; type: cell-based, Mycobacterium abscessus; conditions: for MIC ratio: WT MIC/Δarr strain MIC
# Procedure: (§1) MIC determination was carried out in 96-well plate format as previously described.^[13-14] 96-well plates were initially set up with 100 μL of 7H9 per well. For each compound, a ten-point two-fold dilution series starting at twice the desired highest concentration was dispensed onto the 96-well plates using a Tecan D300e Digital Dispenser, with the DMSO concentration normalized to 2%. M. abscessus culture grown to mid-log phase (OD600=0.4-0.6) was diluted to OD600=0.1 (1×10^7 CFU/mL). […] Untreated control wells are included on each plate that contain bacteria suspension and 1% DMSO. Plates were sealed with parafilm, stored in boxes with wet paper towels and incubated at 37° C. with shaking (110 RPM). Plates were incubated for 3 days. To determine growth, OD600 was measured using a Tecan Infinite M200 plate reader on Day 0 and Day 3. Two biological replicates were performed. Clarithromycin was included in each experiment as a positive control.
# (§2) For each well on the 96-well plate, bacterial growth was calculated by subtracting the Day 0 OD600 value from the Day 3 OD600 value. […] For compound-containing wells, percentage growth was calculated by dividing their growth values by the average drug-free bacterial growth for the compound series and multiplying by 100. For each compound series, we plotted percentage growth versus compound concentration.
# Δarr M. abscessus = assay: MIC assay, isogenic arr-deleted strain; type: cell-based, Mycobacterium abscessus; conditions: arr-deleted strain; 90% growth inhibition
# Procedure: as §1, §2
# [1] = Plasma protein binding assay (rapid equilibrium dialysis); type: in vitro ADME; conditions: 4 h, 10000 ng/mL
# Procedure: DMSO stocks were spiked into plasma to a concentration of 10,000 ng/mL. 200 μL of spiked plasma was pipetted into the sample chamber of the rapid equilibrium dialysis (RED) cartridge. 350 μL of PBS was added to the adjacent cartridge. The plate containing the RED was sealed and incubated at 37° C. on the thermomixer at 300 RPM for 4 h. After incubation, 50 μL aliquots of plasma were removed and added to 50 μL of blank plasma in a deep well plate (1:1). Similarly, 50 μL aliquots of PBS were removed and added to 50 μL of blank plasma. This created an identical matrix between buffer and non-buffer samples. Samples were processed and quantified as specified in the LC-MS/MS analytical method.
# [2] = M. abscessus ATCC 19977, 90% growth inhibition, read-out: WT Mab MIC
# [3] = Mycobacterium abscessus ATCC 19977, Table 11, read-out: MIC
# [4] = Mycobacteroides abscessus, ATCC19977, Table 15, heterocyclic aromatic carbamates, read-out: WT Mab MIC
# [5] = Mycobacteroides abscessus, ATCC19977, Table 14, carbamate analogs, read-out: WT Mab MIC
compound,measurement,setting,value
CCC(C)C(=O)OC1C(C)C(OC)C=COC2(C)Oc3c(C)c(O)c4c(c3C2=O)C2=NC3(CCN(CC(C)C)CC3)NC2=C(NC(=O)C(C)=CC=CC(C)C(O)C(C)C(O)C1C)C4=O (mixture of isomers) [5k],MIC,M. abscessus ATCC 19977; [2],1.1 µM
same,MIC ratio,M. abscessus ATCC 19977,39.3
same,Δarr Mab MIC,Δarr M. abscessus,0.028 µM
"CO[C@H]1/C=C/O[C@@]2(C)Oc3c(C)c(O)c4c(c3C2=O)C2=NC3(CCN(CC(C)C)CC3)NC2=C(NC(=O)/C(C)=C/C=C/[C@H](C)[C@H](O)[C@@H](C)[C@@H](O)[C@@H](C)[C@H](OC(=O)c2cccc(C)c2)[C@@H]1C)C4=O [5c, 25-O-(3-methylbenzoyl)-25-O-desacetyrifabutin]",MIC,M. abscessus ATCC 19977; [2],0.075 µM
same,MIC ratio,M. abscessus ATCC 19977,1.2
same,Δarr Mab MIC,Δarr M. abscessus,0.065 µM
"CO[C@H]1/C=C/O[C@@]2(C)Oc3c(C)c(O)c4c(c3C2=O)C2=NC3(CCN(CC(C)C)CC3)NC2=C(NC(=O)/C(C)=C/C=C/[C@H](C)[C@H](O)[C@@H](C)[C@@H](O)[C@@H](C)[C@H](OC(=O)c2ccc(C)cc2)[C@@H]1C)C4=O [5d, 25-O-(4-methylbenzoyl)-25-O-desacetyrifabutin]",MIC,M. abscessus ATCC 19977; [2],0.2 µM
same,MIC ratio,M. abscessus ATCC 19977,1.8
same,Δarr Mab MIC,Δarr M. abscessus,0.11 µM
"CO[C@H]1/C=C/O[C@@]2(C)Oc3c(C)c(O)c4c(c3C2=O)C2=NC3(CCN(CC(C)C)CC3)NC2=C(NC(=O)/C(C)=C/C=C/[C@H](C)[C@H](O)[C@@H](C)[C@@H](O)[C@@H](C)[C@H](OC(=O)c2ccccc2F)[C@@H]1C)C4=O [5e, 25-O-(2-fluorobenzoyl)-25-O-desacetyrifabutin]",MIC,M. abscessus ATCC 19977; [2],0.06 µM
same,MIC ratio,M. abscessus ATCC 19977,1.0
same,Δarr Mab MIC,Δarr M. abscessus,0.058 µM
CO[C@H]1/C=C/O[C@@]2(C)Oc3c(C)c(O)c4c(c3C2=O)C2=NC3(CCN(CC(C)C)CC3)NC2=C(NC(=O)/C(C)=C/C=C/[C@H](C)[C@H](O)[C@@H](C)[C@@H](O)[C@@H](C)[C@H](OC(=O)N2CCN(C)C(C)C2)[C@@H]1C)C4=O (stereo partly drawn) [UMN52],MIC,M. abscessus ATCC 19977; [3],0.097 µM
"CO[C@H]1/C=C/O[C@@]2(C)Oc3c(C)c(O)c4c(c3C2=O)C2=NC3(CCN(CC(C)C)CC3)NC2=C(NC(=O)/C(C)=C/C=C/[C@H](C)[C@H](O)[C@@H](C)[C@@H](O)[C@@H](C)[C@H](OC(=O)c2cc(Cl)c(Cl)cc2C(=O)O)[C@@H]1C)C4=O [UMN99, 25-O-(6-carboxyl-3,4-dichlorobenzoyl)-25-O-desacetyrifabutin]",MIC,M. abscessus ATCC 19977; [3],0.1 µM
CO[C@H]1/C=C/O[C@@]2(C)Oc3c(C)c(O)c4c(c3C2=O)C2=NC3(CCN(CC(C)C)CC3)NC2=C(NC(=O)/C(C)=C/C=C/[C@H](C)[C@H](O)[C@@H](C)[C@@H](O)[C@@H](C)[C@H](OC(=O)NCc2cn(-c3cccc(Br)c3)nn2)[C@@H]1C)C4=O [UMN104],MIC,M. abscessus ATCC 19977; [3],0.032 µM
CO[C@H]1/C=C/O[C@@]2(C)Oc3c(C)c(O)c4c(c3C2=O)C2=NC3(CCN(CC(C)C)CC3)NC2=C(NC(=O)/C(C)=C/C=C/[C@H](C)[C@H](O)[C@@H](C)[C@@H](O)[C@@H](C)[C@H](OC(=O)Nc2ccccc2F)[C@@H]1C)C4=O [UMN106],MIC,M. abscessus ATCC 19977; [3],0.034 µM
CO[C@H]1/C=C/O[C@@]2(C)Oc3c(C)c(O)c4c(c3C2=O)C2=NC3(CCN(CC(C)C)CC3)NC2=C(NC(=O)/C(C)=C/C=C/[C@H](C)[C@H](O)[C@@H](C)[C@@H](O)[C@@H](C)[C@H](OC(=O)Nc2cccc(F)c2)[C@@H]1C)C4=O [UMN107],MIC,M. abscessus ATCC 19977; [3],0.1 µM
CO[C@H]1/C=C/O[C@@]2(C)Oc3c(C)c(O)c4c(c3C2=O)C2=NC3(CCN(CC(C)C)CC3)NC2=C(NC(=O)/C(C)=C/C=C/[C@H](C)[C@H](O)[C@@H](C)[C@@H](O)[C@@H](C)[C@H](OC(=O)Nc2ccc(F)cc2)[C@@H]1C)C4=O [UMN108],MIC,M. abscessus ATCC 19977; [3],0.062 µM
CO[C@H]1/C=C/O[C@@]2(C)Oc3c(C)c(O)c4c(c3C2=O)C2=NC3(CCN(CC(C)C)CC3)NC2=C(NC(=O)/C(C)=C/C=C/[C@H](C)[C@H](O)[C@@H](C)[C@@H](O)[C@@H](C)[C@H](OC(=O)Nc2ccccn2)[C@@H]1C)C4=O [UMN117],MIC,M. abscessus ATCC 19977; [4],0.025 µM
same,ƒu,[1],0.9%
CO[C@H]1/C=C/O[C@@]2(C)Oc3c(C)c(O)c4c(c3C2=O)C2=NC3(CCN(CC(C)C)CC3)NC2=C(NC(=O)/C(C)=C/C=C/[C@H](C)[C@H](O)[C@@H](C)[C@@H](O)[C@@H](C)[C@H](OC(=O)Nc2ccnnc2)[C@@H]1C)C4=O [UMN119],MIC,M. abscessus ATCC 19977; [4],0.05 µM
same,ƒu,[1],6.1%
COc1ccc(S(=O)(=O)NC(=O)O[C@H]2[C@H](C)[C@H](O)[C@H](C)[C@@H](O)[C@@H](C)/C=C/C=C(\C)C(=O)NC3=C4NC5(CCN(CC(C)C)CC5)N=C4c4c(c(O)c(C)c5c4C(=O)[C@@](C)(O/C=C/[C@H](OC)[C@H]2C)O5)C3=O)cc1 [UMN122],MIC,M. abscessus ATCC 19977; [3],0.14 µM
CO[C@H]1/C=C/O[C@@]2(C)Oc3c(C)c(O)c4c(c3C2=O)C2=NC3(CCN(CC(C)C)CC3)NC2=C(NC(=O)/C(C)=C/C=C/[C@H](C)[C@H](O)[C@@H](C)[C@@H](O)[C@@H](C)[C@H](OC(=O)Nc2nccc3ccccc23)[C@@H]1C)C4=O [UMN124],MIC,M. abscessus ATCC 19977; [3],0.027 µM
CO[C@H]1/C=C/O[C@@]2(C)Oc3c(C)c(O)c4c(c3C2=O)C2=NC3(CCN(CC(C)C)CC3)NC2=C(NC(=O)/C(C)=C/C=C/[C@H](C)[C@H](O)[C@@H](C)[C@@H](O)[C@@H](C)[C@H](OC(=O)Nc2ccc3cnccc3n2)[C@@H]1C)C4=O [UMN127],MIC,M. abscessus ATCC 19977; [3],0.03 µM
CO[C@H]1/C=C/O[C@@]2(C)Oc3c(C)c(O)c4c(c3C2=O)C2=NC3(CCN(CC(C)C)CC3)NC2=C(NC(=O)/C(C)=C/C=C/[C@H](C)[C@H](O)[C@@H](C)[C@@H](O)[C@@H](C)[C@H](OC(=O)Nc2cnn3ccccc23)[C@@H]1C)C4=O [UMN129],MIC,M. abscessus ATCC 19977; [3],0.044 µM
CO[C@H]1/C=C/O[C@@]2(C)Oc3c(C)c(O)c4c(c3C2=O)C2=NC3(CCN(CC(C)C)CC3)NC2=C(NC(=O)/C(C)=C/C=C/[C@H](C)[C@H](O)[C@@H](C)[C@@H](O)[C@@H](C)[C@H](OC(=O)Nc2cnc3cc(C)nn3c2)[C@@H]1C)C4=O [UMN130],MIC,M. abscessus ATCC 19977; [3],0.049 µM
CO[C@H]1/C=C/O[C@@]2(C)Oc3c(C)c(O)c4c(c3C2=O)C2=NC3(CCN(CC(C)C)CC3)NC2=C(NC(=O)/C(C)=C/C=C/[C@H](C)[C@H](O)[C@@H](C)[C@@H](O)[C@@H](C)[C@H](OC(=O)Nc2cnc3ccccc3n2)[C@@H]1C)C4=O [UMN134],MIC,M. abscessus ATCC 19977; [3],0.03 µM
CO[C@H]1/C=C/O[C@@]2(C)Oc3c(C)c(O)c4c(c3C2=O)C2=NC3(CCN(CC(C)C)CC3)NC2=C(NC(=O)/C(C)=C/C=C/[C@H](C)[C@H](O)[C@@H](C)[C@@H](O)[C@@H](C)[C@H](OC(=O)Nc2cn3ccccc3n2)[C@@H]1C)C4=O [UMN136],MIC,M. abscessus ATCC 19977; [3],0.061 µM
CO[C@H]1/C=C/O[C@@]2(C)Oc3c(C)c(O)c4c(c3C2=O)C2=NC3(CCN(CC(C)C)CC3)NC2=C(NC(=O)/C(C)=C/C=C/[C@H](C)[C@H](O)[C@@H](C)[C@@H](O)[C@@H](C)[C@H](OC(=O)Nc2cc3ccccn3n2)[C@@H]1C)C4=O [UMN142],MIC,M. abscessus ATCC 19977; [3],0.033 µM
CO[C@H]1/C=C/O[C@@]2(C)Oc3c(C)c(O)c4c(c3C2=O)C2=NC3(CCN(CC(C)C)CC3)NC2=C(NC(=O)/C(C)=C/C=C/[C@H](C)[C@H](O)[C@@H](C)[C@@H](O)[C@@H](C)[C@H](OC(=O)Nc2cn3ccsc3n2)[C@@H]1C)C4=O [UMN145],MIC,M. abscessus ATCC 19977; [3],0.065 µM
CO[C@H]1/C=C/O[C@@]2(C)Oc3c(C)c(O)c4c(c3C2=O)C2=NC3(CCN(CC(C)C)CC3)NC2=C(NC(=O)/C(C)=C/C=C/[C@H](C)[C@H](O)[C@@H](C)[C@@H](O)[C@@H](C)[C@H](OC(=O)NC2CCN(C)CC2)[C@@H]1C)C4=O [UMN146],MIC,M. abscessus ATCC 19977; [5],0.09 µM
same,ƒu,[1],10.8%
CO[C@H]1/C=C/O[C@@]2(C)Oc3c(C)c(O)c4c(c3C2=O)C2=NC3(CCN(CC(C)C)CC3)NC2=C(NC(=O)/C(C)=C/C=C/[C@H](C)[C@H](O)[C@@H](C)[C@@H](O)[C@@H](C)[C@H](OC(=O)NC2CCN(C(C)C)CC2)[C@@H]1C)C4=O [UMN147],MIC,M. abscessus ATCC 19977; [5],0.098 µM
same,ƒu,[1],7.5%
CCN1CCC(NC(=O)O[C@H]2[C@H](C)[C@H](O)[C@H](C)[C@@H](O)[C@@H](C)/C=C/C=C(\C)C(=O)NC3=C4NC5(CCN(CC(C)C)CC5)N=C4c4c(c(O)c(C)c5c4C(=O)[C@@](C)(O/C=C/[C@H](OC)[C@H]2C)O5)C3=O)CC1 [UMN149],MIC,M. abscessus ATCC 19977; [5],0.078 µM
same,ƒu,[1],10.4%
CO[C@H]1/C=C/O[C@@]2(C)Oc3c(C)c(O)c4c(c3C2=O)C2=NC3(CCN(CC(C)C)CC3)NC2=C(NC(=O)/C(C)=C/C=C/[C@H](C)[C@H](O)[C@@H](C)[C@@H](O)[C@@H](C)[C@H](OC(=O)NC2CCN(CC(C)C)CC2)[C@@H]1C)C4=O [UMN150],MIC,M. abscessus ATCC 19977; [5],0.054 µM
same,ƒu,[1],3.6%
